Measured values reported in patent publication US20220388962A1 (Biohaven Therapeutics Ltd., priority 2019, published 2022).
pIC50: −log10 of the molar value. Where a name gives a salt, the structure may show the parent alone.

biological target: TDP-43 (Homo sapiens, UniProt Q13148); experiment: TDP-43-DNA alpha-screen assay (bt-TAR-32 displacement); assay type: binding; details: bt-TAR-32 0.125 nM, 15 ng/ml TDP-43
Method: Alpha-screen assay: Displacement of bt-TG6 binding was measured using AlphaScreen technology as previously described (Cassel, J. A. et al., Journal of Biomolecular Screening, 2010, 15, 1099-1106; Cassel, J. A.; Reitz, A. B. et al. The effects of small molecule inhibitors of nucleic acid binding to TDP-43 on TDP-43 metabolism and function. Biochimie, 2012, 94, 1974-1981).
Test compounds were diluted in assay buffer (25 mM Tris [pH 7.4], 0.1% bovine serum albumin [BSA], 0.1% Triton X-100) at 4× the desired final concentration. Dilutions of test compound (50 to 0.02 μM in half-log dilutions with a no compound control well) were pre-incubated with TDP-43 (5 μl of 60 ng/mL) pre-bound to AlphaScreen® anti-GST acceptor beads (5 μl of 40 μg/mL) in 15 μl volume for 30 minutes at 23° C. with shaking. Assays were initiated by the addition of 5 μl bt-TAR-32 (5′-CTGCTTTTTGCCTGTACTGGGTCTCTGTGGTT-3′) 0.5 nM pre-bound to AlphaScreen® strepavidin donor beads (40 μg/mL). After incubation in the dark at 23° C. for 90 minutes with shaking, the AlphaScreen® signal was measured on a Synergy 2 plate reader (BioTek, Winooski, Vt.). IC50 values were determined from nonlinear regression fits of the data to a Sigmoidal dose response variable slope model in GraphPad Prism. Final assay conditions are 25 mM Tris [pH 7.4], 0.1% bovine serum albumin [BSA], 0.100 Triton X-100, 15 ng/ml TDP-43, 0.125 nM bTAR32, 10 ug/ml […].

Chain of TDP-43 (Q13148 whole entry): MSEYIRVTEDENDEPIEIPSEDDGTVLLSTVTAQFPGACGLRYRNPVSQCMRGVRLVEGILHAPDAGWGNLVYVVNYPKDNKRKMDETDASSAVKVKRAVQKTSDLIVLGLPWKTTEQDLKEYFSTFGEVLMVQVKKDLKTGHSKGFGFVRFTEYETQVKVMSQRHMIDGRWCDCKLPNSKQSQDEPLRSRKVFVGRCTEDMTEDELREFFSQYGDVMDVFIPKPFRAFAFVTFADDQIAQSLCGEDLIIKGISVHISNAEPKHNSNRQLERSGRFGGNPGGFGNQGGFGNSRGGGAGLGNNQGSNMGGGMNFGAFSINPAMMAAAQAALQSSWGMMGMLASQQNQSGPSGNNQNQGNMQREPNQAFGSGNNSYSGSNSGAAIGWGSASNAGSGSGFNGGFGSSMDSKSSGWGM

Compound | pIC50
CN(CCCN)CCCNc1cc(-c2ccc(N3CCNCC3)cc2)nc2ccccc12 [Example 29, N^1-(3-aminopropyl)-N^1-methyl-N^3-(2-(4-(piperazin-1-yl)phenyl)quinolin-4-yl)propane-1,3-diamine] | 7.10
COc1ccc(-c2cc(NCCCN(C)CC3CCN(C)CC3)c3ccccc3n2)cc1 [Example 30, N^1-(2-(4-methoxyphenyl)quinolin-4-yl)-N^3-methyl-N^3-((1-methylpiperidin-4-yl)methyl)propane-1,3-diamine] | 6.46
COc1ccc(-c2cc(NCCCN3CC4CCC(N)C4C3)c3ccccc3n2)cc1 (centres unmarked) [Example 34, N-(3-(4-Aminohexahydrocyclopenta[c]pyrrol-2(1H)-yl)propyl)-2-(4-methoxyphenyl)quinolin-4-amine trihydrochloride] | 6.68
COc1ccc(-c2cc(NCCCN3CC4CCN(C(=O)OC(C)(C)C)CC4C3)c3ccccc3n2)cc1 (centres unmarked) [Example 35, tert-Butyl 2-(3-((2-(4-methoxyphenyl)quinolin-4-yl)amino)propyl) hexahydro-1H-pyrrolo[3,4-c]pyridine-5(6H)-carboxylate] | 5.57
COc1ccc(-c2cc(NCCCN3CC4CCNCC4C3)c3ccccc3n2)cc1 (centres unmarked) [Example 36, N-(3-(Hexahydro-1H-pyrrolo[3,4-c]pyridin-2(3H)-yl)propyl)-2-(4-methoxyphenyl)quinolin-4-amine dihydrochloride] | 6.82
COc1ccc(-c2cc(NCCC3CCCCN3CCCN)c3ccccc3n2)cc1 (centres unmarked) [Example 39, N-(2-(1-(3-Aminopropyl)piperidin-2-yl)ethyl)-2-(4-methoxyphenyl) quinolin-4-amine dihydrochloride] | 6.89
COc1ccc(-c2cc(NCCCNC3CCN(Cc4ccc(F)cc4)CC3)c3ccccc3n2)cc1 [Example 40, N^1-(1-(4-Fluorobenzyl)piperidin-4-yl)-N^3-(2-(4-methoxyphenyl)quinolin-4-yl)propane-1,3-diamine] | 6.52
COc1ccc(-c2cc(NCCCN3CCC4(CNC4)C3)c3ccccc3n2)cc1 [Example 42, N-(3-(2,6-Diazaspiro[3.4]octan-6-yl)propyl)-2-(4-methoxyphenyl)quinolin-4-amine] | 6.64
COc1ccc(-c2cc(NCCCNCCC3CCCCN3C(=O)OC(C)(C)C)c3ccccc3n2)cc1 (centres unmarked) [Example 44, tert-Butyl 2-(2-((3-((2-(4-methoxyphenyl)quinolin-4-yl)amino)propyl)amino)ethyl)piperidine-1-carboxylate] | 5.68
COc1ccc(-c2cc(NCCCN(C)CC3CCN(C(=O)OC(C)(C)C)CC3)c3ccccc3n2)cc1 [Example 47, tert-Butyl 4-{[(3-{[2-(4-methoxyphenyl)quinolin-4-yl]amino}propyl)(methyl)amino]methyl}piperidine-1-carboxylate] | 5.39
COc1ccc(-c2cc(NCCCN(C)CC3CCNCC3)c3ccccc3n2)cc1 [Example 48, N-(3-(N-Methyl-N-((piperidin-4-yl)methyl)amino)propyl)-2-(4-methoxyphenyl)quinolin-4-amine] | 7.00
COc1ccc(-c2cc(NCCCNS(=O)(=O)c3ccc(-c4nn[nH]n4)cc3)c3ccccc3n2)cc1 [Example 49, N-(3-((2-(4-Methoxyphenyl)quinolin-4-yl)amino)propyl)-4-(2H-tetrazol-5-yl)benzene sulfonamide] | 5.14
COc1ccc(-c2cc(NCCCNc3ccc(-c4nn[nH]n4)cc3)c3ccccc3n2)cc1 [Example 50, N^1-(4-(2H-Tetrazol-5-yl)phenyl)-N^3-(2-(4-methoxyphenyl)quinolin-4-yl) propane-1,3-diamine] | 4.82
COc1ccc(-c2cc(NCCCN3CCC(CO)CC3)c3ccccc3n2)cc1 [Example 51, (1-(3-((2-(4-Methoxyphenyl)quinolin-4-yl)amino)propyl)piperidin-4-yl) methanol] | 5.83
CCN(CC)CC(O)CNCCCNc1cc(-c2ccc(OC)cc2)nc2ccccc12 (centres unmarked) [Example 52, 1-(Diethylamino)-3-((3-((2-(4-methoxyphenyl)quinolin-4-yl)amino)propyl)amino)propan-2-ol dihydrochloride] | 6.77
COc1ccc(-c2cc(NCCCNCc3ccnn3C)c3ccccc3n2)cc1 [Example 53, N^1-(2-(4-Methoxyphenyl)quinolin-4-yl)-N^3-((1-methyl-1H-pyrazol-5-yl)methyl) propane-1,3-diamine dihydrochloride] | 5.49
COc1ccc(-c2cc(NCCCNCCc3c[nH]c4cc(OC)ccc34)c3ccccc3n2)cc1 [Example 57, N-(3-(2-(6-Methoxy-1H-indol-3-yl)ethylamino)propyl)-2-(4-methoxyphenyl) quinolin-4-amine] | 6.59
COc1ccc(-c2cc(NCCCN(CC3CCN(C(=O)OC(C)(C)C)CC3)CC3CCN(C(=O)OC(C)(C)C)CC3)c3ccccc3n2)cc1 [Example 58, tert-Butyl 4-{[({1-[(tert-butoxy)carbonyl]piperidin-4-yl}methyl)(3-{[2-(4-methoxyphenyl)-quinolin-4-yl]amino}propyl)amino]methyl}piperidine-1-carboxylate] | 4.57
COc1ccc(-c2cc(NCCCN(CC3CCNCC3)CC3CCNCC3)c3ccccc3n2)cc1 [Example 59, N-(3-(Bis((piperidin-4-yl)methyl)amino)propyl)-2-(4-methoxyphenyl) quinolin-4-amine] | 7.00
COc1ccc(CN(C)CCCNc2cc(-c3ccc(OC)cc3)nc3ccccc23)cc1 [Example 60, N^1-(4-Methoxybenzyl)-N^3-(2-(4-methoxyphenyl)quinolin-4-yl)-N^1-methyl propane-1,3-diamine] | 5.71
COc1ccc(-c2cc(NC3CCC(NCCCNC(=O)OC(C)(C)C)CC3)c3ccccc3n2)cc1 (centres unmarked) [Example 61, tert-Butyl(3-((4-((2-(4-methoxyphenyl)quinolin-4-yl)amino)cyclohexyl)amino)propyl)carbamate] | 5.87
COc1ccc(-c2cc(NCCCNCC3CCN(C(=O)OC(C)(C)C)CC3)c3ccccc3n2)cc1 [Example 62, tert-Butyl 4-{[(3-{[2-(4-methoxyphenyl)quinolin-4-yl]amino}propyl)amino]methyl}piperidine-1-carboxylate] | 5.94

Results, then the compound that gave them:

pIC50 | Compound
6.46 | COc1ccc(-c2cc(NCCCN(C)CCC3CCCCN3)c3ccccc3n2)cc1 (centres unmarked) [Example 31, N^1-(2-(4-methoxyphenyl)quinolin-4-yl)-N^3-methyl-N^3-(2-(piperidin-2-yl)ethyl)propane-1,3-diamine]
6.74 | COc1ccc(-c2cc(NCCCNC3CCC4CNCC43)c3ccccc3n2)cc1 (centres unmarked) [Example 33, N^1-(2-(4-Methoxyphenyl)quinolin-4-yl)-N^3-(octahydrocyclopenta[c]pyrrol-4-yl)propane-1,3-diamine dihydrochloride]
6.66 | COc1ccc(-c2cc(NCCCN(C)CC3CCN(CC4CC4)CC3)c3ccccc3n2)cc1 [Example 38, N^1-((1-(Cyclopropylmethyl)piperidin-4-yl)methyl)-N^3-(2-(4-methoxyphenyl)quinolin-4-yl)-N^1-methylpropane-1,3-diamine]
5.83 | COc1ccc(-c2cc(NCCCN3CCC4(C3)CN(C(=O)OC(C)(C)C)C4)c3ccccc3n2)cc1 [Example 41, tert-Butyl 6-(3-((2-(4-methoxyphenyl)quinolin-4-yl)amino)propyl)-2,6-diaza spiro[3.4]octane-2-carboxylate]
5.92 | COc1ccc(-c2cc(NCCCN3CCCN(C)CC3)c3ccccc3n2)cc1 [Example 43, 2-(4-Methoxyphenyl)-N-(3-(4-methyl-1,4-diazepan-1-yl)propyl)quinolin-4-amine]
6.15 | COc1ccc(-c2cc(NCCCNCCC3CCCCN3)c3ccccc3n2)cc1 (centres unmarked) [Example 45, N^1-(2-(4-methoxyphenyl)quinolin-4-yl)-N^3-(2-(piperidin-2-yl)ethyl)propane-1,3-diamine]
6.44 | COc1ccc(-c2cc(NCCCN3CCN(CCCN)CC3)c3ccccc3n2)cc1 [Example 46, N-(3-(4-(3-Aminopropyl)piperazin-1-yl)propyl)-2-(4-methoxyphenyl)quinolin-4-amine hydrochloride]
5.72 | COc1ccc(-c2cc(NCCCNCCc3ccccn3)c3ccccc3n2)cc1 [Example 54, N^1-(2-(4-methoxyphenyl)quinolin-4-yl)-N^3-(2-(pyridin-2-yl)ethyl)propane-1,3-diamine hydrochloride]
6.01 | COc1ccc(-c2cc(NCCCNc3ccc(N4CCCCC4)cc3)c3ccccc3n2)cc1 [Example 55, N^1-(2-(4-Methoxyphenyl)quinolin-4-yl)-N^3-(4-(piperidin-1-yl)phenyl) propane-1,3-diamine dihydrochloride]
6.52 | COc1ccc(-c2cc(NCC3CCCN(CCCN)C3)c3ccccc3n2)cc1 (centres unmarked) [Example 56, N-((1-(3-Aminopropyl)piperidin-3-yl)methyl)-2-(4-methoxyphenyl)quinolin-4-amine]
